The subject of series [1] is mouse lung fibroblast (L929 cell line). The series can be described thus: Cell viability test (ISO10993-5, MTT assay). It counts as cell-based. Particulars: for cell viability: L929, 24 hours, 37° C. The source says: The 1st example is used as the experimental group to perform the cell viability test. Specifically, according to ISO10993-5 standard method, the mouse lung fibroblast (L929 cell line) is used as the test cell, and the composition of the test culture medium is 90% MEM culture medium, 10% fetal bovine serum (FBS) and additional 1% antibiotic (penicillin-streptomycin). Then, the ethanol with the final concentration of 0.1% is used as the solvent to dissolve the tested plasticizer in the test culture medium. The control group of the cell viability test is the test culture solution only added the ethanol with the final concentration of 0.1%. In the experimental group, the plasticizer of the 1st example with the concentration of 0.1 mM or 0.3 mM is added to the test culture solution, respectively, and the concentration of the ethanol in the test culture solution of the control group and the experimental group are the same, the test condition is the 37° C. environment containing 5% carbon dioxide placed for 24 hours. After the test finished, each group is tested with MTT assay, the detection wavelength is the optical density at 570 nm (OD570) and the optical density at 650 nm (OD650), and the cell viability is calculated accordingly. The formula for calculating the cell viability is: (the average value of OD570 and OD650 in the experimental group)/(the average value of three repetitions of (the average value of OD570 and OD650 in the control group))×100%. The cell viability is used to determine whether the group has the cytotoxicity, and when the cell viability is more than 70%, it is considered that this group is non-cytotoxic.
On the technique in general: Formazan colour is commonly taken as a measure of viable cells.

The nature of series [2]: Pyrolysis temperature of the plasticizer. It counts as physicochemical. As to the method:
According to the plasticizer of the present disclosure, when a pyrolysis temperature of the plasticizer is Pt, the following condition can be satisfied: 100° C.≤Pt. Therefore, it is favorable for stabilizing the structure of the plasticizer at the high temperature by the high pyrolysis temperature of the plasticizer. Furthermore, the following condition can be satisfied: 120° C.≤Pt. Furthermore, the following condition can be satisfied: 150° C.≤Pt. Furthermore, the following condition can be satisfied: 170° C.≤Pt. Furthermore, the following condition can be satisfied: 180° C.≤Pt.

For orientation: cell viability means a per cent measure of how many cells are alive, often set against a control. A low value points to more harm to the cells. As for `CCC(CC)COC(=O)CC(N)C(=O)OCC(CC)CC` (stereo not shown) [1st example, 1,4-bis(2-ethylbutyl) 2-aminobutanedioate], the “toxic to the cells” value in series [1] (0.3 mM) is on record as “will not be toxic to the cells”. For the same molecule, the figures for the cell viability in series [1] (plasticizer 0.1 mM) and in series [1] (plasticizer 0.3 mM) were 99.10% and 81.90%, respectively. For the same molecule, the “Pt (º C.)” value in series [2] is given as 200 º C.
